According to patent publication US8680145B1, “Compositions and methods for treatment of fear of medical procedures” (priority 2013, dated 2014):

Columns and labels:
[1] = chronic administration (Kellstein 1990); cited from earlier work
[2] = cited from earlier work
human patients = conditions: cited from earlier work
[3] = system: subject with dental phobia; experiment: Replacement of an aged metal filling in the same subject after proglumide (Example 2); type: in vivo, human; conditions: capsule 200 mg proglumide 90 minutes prior; local anesthetic given by dentist
Protocol: Proglumide was obtained from commercial suppliers and/or pharmacies, and loaded into capsules. The same subject as in Example 1 returned to the dentist five days after the dental checkup of Example 1 in order to replace an aged metal filling. Again, proglumide was administered to the subject in advance of the appointment. […] The dentist administered a local anesthetic (e.g., lidocaine) painkiller as part of the procedure for replacing the filling. The residual discomfort following the procedure, including after the numbness wore off, was mild.

[4] = system: subject with dental phobia; experiment: Routine dental checkup (cleaning and examination) of a subject with dental phobia after proglumide (Example 1); type: in vivo, human
Source text: Proglumide was obtained from commercial suppliers and/or pharmacies, and loaded into capsules. A subject with dental phobia, who had not been to a dentist in many years, agreed to undergo a routine dental checkup visit (cleaning and examination), and to take proglumide prior to the dental visit. […] Furthermore, the subject was willing to return for a follow-up visit within one week in order to replace an aged filling, a procedure that was not deemed urgent and easily could have been delayed.

rats = conditions: opiate-naïve and morphine-tolerant rats (Watkins 1985); cited from earlier work

In the case of `CCCN(CCC)C(=O)C(CCC(=O)O)NC(=O)c1ccccc1` (stereo not shown) [proglumide, Proglumide], the “Efficacy as a long-term adjunct to opiate treatment for chronic pain” value [1] is listed as “ineffective”, the Placebo analgesia ([2]; Benedetti 1995) is listed as “enhance” and the Nocebo hyperalgesia ([2]; Benedetti 2006) is listed as “block”. For the same compound, the “Augmentation of morphine analgesia, treatment vs control groups” value (human patients; cancer pain management (Bernstein 1998) and post-operative patients (Lehmann 1989)) was “no difference”, the “Analgesic efficacy of morphine” value (human patients; human patients with chronic pain (McCleane 1998)) was “enhances” and the “Residual discomfort following the procedure, including after the numbness wore off” value [3] was “mild”. For the same compound, the Total discomfort ([4]; capsule 100 mg proglumide ninety minutes prior to dental appointment) was “low enough that the subject would be willing to return to a regular dental checkup schedule”, the “Subject-reported pain during calculus removal” value ([4]; capsule 100 mg proglumide ninety minutes prior to dental appointment, relative to previous dental visits without proglumide) was “substantially reduced” and the “Post-checkup pain (tender gums, sensitivity while chewing)” value ([4]; capsule 100 mg proglumide ninety minutes prior, relative to after previous dental checkups) was “significantly reduced”. For the same compound, the Morphine analgesia (rats) was “potentiates”.
